From ChEMBL document CHEMBL3044820, “Evaluation of Benzenesulfonanilide Derivatives for the Control of Crucifers Clubroot” (1996) come the findings set out here.

Common to all, as to format: functional
Test [1] concerns Plasmodiophora brassicae. In words: Fungicidal activity against clubroot disease causing Plasmodiophora brassicae infested Brassica campestris under greenhouse condition assessed as disease incidence at 4 kg a.i/ha treated to soil measured after 40 to 50 days.
The subject of test [2] is Plasmodiophora brassicae. Nature of the test: Fungicidal activity against clubroot disease causing Plasmodiophora brassicae infested Brassica campestris under greenhouse condition assessed as disease incidence at 2 kg a.i/ha treated to soil measured after 40 to 50 days.
Test [3] relates to Plasmodiophora brassicae. Nature of the test: Fungicidal activity against clubroot disease causing Plasmodiophora brassicae infested Brassica campestris under greenhouse condition assessed as disease incidence at 0.5 kg a.i/ha treated to soil measured after 40 to 50 days.

The structures appear in SMILES notation.

Regarding `O=[N+]([O-])c1cc(Cl)c(NS(=O)(=O)c2ccc(Cl)cc2)c(Cl)c1`, the Activity in test [1] is greater than 91%; in test [2], greater than 91%; in test [3] it was 0%.

Regarding `O=S(=O)(Nc1cc(C(F)(F)F)ccc1Cl)c1cccc(C(F)(F)F)c1`, the values for the Activity in test [1], in test [2] and in test [3] were greater than 91%, greater than 91% and 0%, respectively.

Consider `O=[N+]([O-])c1ccc(NS(=O)(=O)c2cc(C(F)(F)F)ccc2Cl)c(Cl)c1`, for which the figures for the Activity in test [1], in test [2] and in test [3] were greater than 91%, greater than 91% and 51%, respectively.

`O=S(=O)(Nc1ccc(C(F)(F)F)cc1Cl)c1cccc(C(F)(F)F)c1`: the Activity in test [1], in test [2] and in test [3] was greater than 91% each time.

For the compound `O=[N+]([O-])c1ccc(NS(=O)(=O)c2cccc(C(F)(F)F)c2)c(Cl)c1`, the Activity in test [1], in test [2] and in test [3] was greater than 91% each time.

Take `Cc1cc([N+](=O)[O-])ccc1NS(=O)(=O)c1cc(Cl)ccc1Cl`: the Activity in test [1] is on record as greater than 91%; in test [2], greater than 91%; in test [3], 51%.

For the compound `Cc1ccc(S(=O)(=O)Nc2ccc([N+](=O)[O-])cc2Cl)cc1[N+](=O)[O-]`, the Activity is greater than 91% in test [1], greater than 91% in test [2] and 26% in test [3].

With `O=[N+]([O-])c1ccc(NS(=O)(=O)c2cc(Cl)c(Cl)cc2Cl)c(F)c1`, the Activity is greater than 91% in test [1], greater than 91% in test [2] and 71% in test [3].

As to `O=S(=O)(Nc1ccc(C(F)(F)F)cc1Cl)c1cc(C(F)(F)F)ccc1Cl`, the Activity in test [1], in test [2] and in test [3] was greater than 91% in each case.

Take `O=[N+]([O-])c1ccc(NS(=O)(=O)c2ccc(Cl)c(C(F)(F)F)c2)c(Cl)c1` [FLUSULFAMIDE]: the Activity in test [1], in test [2] and in test [3] was greater than 91% each time.

For the compound `O=[N+]([O-])c1ccc(NS(=O)(=O)c2cc(Cl)ccc2Cl)c(Cl)c1`, the Activity in test [1] is reported as greater than 91%; in test [2], greater than 91%; in test [3], 26%.

`Cc1ccc(S(=O)(=O)Nc2ccc([N+](=O)[O-])cc2Cl)c(C)c1`: the results for the Activity in test [1], in test [2] and in test [3] were greater than 91%, greater than 91% and 0%, respectively.

`O=S(=O)(Nc1ccc(C(F)(F)F)cc1Cl)c1ccc(Cl)c(Cl)c1`: the Activity in test [1] is greater than 91%; in test [2], greater than 91%; in test [3], 51%.
